Like-named read-outs stand apart in the source and are kept apart here.
Tests used:
[1] = system: P. falciparum Dd2 (PfLuc) line expressing firefly luciferase, asexual blood stage; experiment: microbe, parasite or virus in culture; assay type: cell-based, Plasmodium falciparum; details: Plasmodium falciparum
P. falciparum Dd2 = experiment: SYBR green I asexual blood stage proliferation assay (96 h); assay type: cell-based, Plasmodium falciparum; details: Plasmodium falciparum, DD2, 11-pt dose response, 96hr
[2] = DD2, read-out: CDD P. falciparum Luciferase ABS 11-pt Reconfirmation Dose Response (48hr): IC50 (μM), 11-pt dose response, 48hr
[3] = DD2, 8-pt dose response, 96hr, read-out: CDD P. falciparum Luciferase ABS 8-pt Reconfirmation Dose Response (96hr): IC50
[4] = DD2, 8-pt dose response, 96hr, read-out: CDD P. falciparum Luciferase ABS 8-pt Reconfirmation Dose Response (96hr): Maximum inhibition (%)
[5] = DD2, 11-pt dose response, 48hr, read-out: CDD P. falciparum Luciferase ABS 11-pt Reconfirmation Dose Response (48hr): Maximum inhibition (%)
[6] = DD2, 11-pt dose response, 96hr, read-out: CDD P. falciparum Luciferase ABS 11-pt Reconfirmation Dose Response (96hr): IC50
[7] = DD2, 11-pt dose response, 96hr, read-out: CDD P. falciparum Luciferase ABS 11-pt Reconfirmation Dose Response (96hr): Maximum inhibition (%)
[8] = Sybr Green I, read-out: CDD P. falciparum Sybr Green I ABS 11-pt Reconfirmation Dose Response (96hr): IC50
[9] = Sybr Green I, read-out: CDD P. falciparum Sybr Green I ABS 11-pt Reconfirmation Dose Response (96hr): Maximum inhibition (%)
[10] = DD2, read-out: P. falciparum Luciferase ABS 11-pt Reconfirmation Dose Response (48hr): IC50, 11-pt dose response, 48hr
[11] = DD2, 8-pt dose response, 96hr, read-out: P. falciparum Luciferase ABS 8-pt Reconfirmation Dose Response (96hr): IC50
[12] = DD2, 8-pt dose response, 96hr, read-out: P. falciparum Luciferase ABS 8-pt Reconfirmation Dose Response (96hr): Maximum inhibition (%)
[13] = DD2, 11-pt dose response, 48hr, read-out: P. falciparum Luciferase ABS 11-pt Reconfirmation Dose Response (48hr): Maximum inhibition (%)
[14] = DD2, 11-pt dose response, 96hr, read-out: P. falciparum Luciferase ABS 11-pt Reconfirmation Dose Response (96hr): IC50
[15] = DD2, 11-pt dose response, 96hr, read-out: P. falciparum Luciferase ABS 11-pt Reconfirmation Dose Response (96hr): Maximum inhibition (%)
[16] = read-out: P. falciparum Sybr Green I ABS 11-pt Reconfirmation Dose Response (96hr): IC50
[17] = read-out: P. falciparum Sybr Green I ABS 11-pt Reconfirmation Dose Response (96hr): Maximum inhibition (%)

| Compound | IC50 [1, 2] | IC50 [1, 3] | Emax [1, 4] | Emax [1, 5] | IC50 [1, 6] | Emax [1, 7] | IC50 (P. falciparum Dd2; [8]) | Emax (P. falciparum Dd2; [9]) | IC50 ([1]; 96 h incubation, Dd2 luciferase, read-out: 96 hour Pfluc IC50) | IC50 [1, 10] | IC50 [1, 11] | Emax [1, 12] | Emax [1, 13] | IC50 [1, 14] | Emax [1, 15] | IC50 (P. falciparum Dd2; [16]) | Emax (P. falciparum Dd2; [17]) |
| --- | --- | --- | --- | --- | --- | --- | --- | --- | --- | --- | --- | --- | --- | --- | --- | --- | --- |
| CCc1cc(CNCc2ccccc2N(C)C2CCN(C)CC2)on1 [DDD01074859] | > 12.5 µM | 0.92 µM | 83.3% | 55.6% | 3.22 µM | 82% | 9.57 µM | 72% |  |  |  |  |  |  |  |  |  |
| CN1CCC(N(C)c2ccccc2CNCc2ccco2)CC1 [DDD01074928] | 1.71 µM | 0.27 µM | 92.9% | 80.4% | 0.211 µM | 97.1% | 1.1 µM | 94.3% | 0.21 µM |  |  |  |  |  |  |  |  |
| Cc1noc(C)c1CNCc1ccccc1N(C)C1CCN(C)CC1 [DDD01074938] | > 12.5 µM | 0.59 µM | 91.9% | 61.9% | 1.55 µM | 86.7% | 2.6 µM | 85.6% |  |  |  |  |  |  |  |  |  |
| Cc1ccc(CNCc2cccc3cccnc23)c(OC2CCOC2)c1 (centres unmarked) [DDD01075119] | 3.77 µM | 0.57 µM | 83.2% | 87.5% | 1.44 µM | 98.4% | > 4.16 µM | 64.7% |  |  |  |  |  |  |  |  |  |
| CC(=O)N(c1ccc(F)cc1)c1nc(CN2CCCC2C(C)C)cs1 (centres unmarked) [DDD01075305] | 6.08 µM | 0.65 µM | 84.5% | 57.5% | 2.69 µM | 92.1% | > 4.16 µM | 62.8% |  |  |  |  |  |  |  |  |  |
| COc1ccccc1C1(CNCc2cccc(O)c2)CCOCC1 [DDD01075721] | 10.3 µM | 0.85 µM | 85.5% | 67.7% | 2.2 µM | 90.3% | > 4.16 µM | 68.7% |  |  |  |  |  |  |  |  |  |
| Cc1ccccc1CNCC(O)c1ccc(OC(C)C)cc1 (centres unmarked) [DDD01076008] | 3.39 µM | 0.89 µM |  | 93.9% | 1.47 µM | 99.7% | 3.77 µM |  |  |  |  |  |  |  |  |  |  |
| Cc1cc(N2CCC(NC(C)Cc3ccsc3)CC2)nc(C)n1 (centres unmarked) [DDD01076128] |  |  |  |  |  |  |  |  |  | 2.25 µM | 1.19 µM | 89.6% | 81.4% | 1.09 µM | 96.6% | 7.78 µM | 72.7% |
| COCC(O)CN(C)c1ccnc2cc(Br)ccc12 (centres unmarked) [DDD01076306] | 1.81 µM | 0.99 µM |  | 97.7% | 1.51 µM | 99.9% | 2.43 µM | 95.6% |  |  |  |  |  |  |  |  |  |
| Cc1cc(NC(=O)NC2CCN(C(C)C)CC2)c2ncccc2c1 [DDD01076635] |  |  |  |  |  |  |  |  |  | > 12.5 µM | 2.21 µM |  | 47.1% | 5.47 µM | 86.3% | 5.3 µM | 53.2% |
| CN1CCN(c2ccccc2NC(=O)NCCc2ccccc2)CC1 [DDD01076697] |  |  |  |  |  |  |  |  |  | > 12.5 µM | 1.14 µM | 82.8% | 65.5% | > 1.39 µM | 89.4% | > 12.5 µM | 52.5% |
| Brc1cccc(C2(CNCc3cc[nH]c3)CCOCC2)c1 [DDD01076928] | 1.56 µM | 0.82 µM | 85.7% | 86.3% | 0.694 µM | 99.3% | 5.62 µM |  |  |  |  |  |  |  |  |  |  |
| Brc1ccc(C2(CNCc3cc[nH]c3)CCOCC2)cc1 [DDD01076992] | 0.715 µM | 0.62 µM | 82.1% | 95.6% | 0.407 µM | 99.6% | 3.08 µM | 54% |  |  |  |  |  |  |  |  |  |
| COCCC1(CNC(=O)Nc2ccnc(C)c2)CCCC1 [DDD01077091] | > 12.5 µM | 1.04 µM | 79.6% | 48.9% | > 1.39 µM | 82% | > 12.5 µM | 47.9% |  |  |  |  |  |  |  |  |  |
| CN1CCN(S(=O)(=O)c2ccc(Cl)c(Cl)c2)c2cnccc21 [DDD01077309] | 6.77 µM | 0.57 µM | 92.2% | 78.7% | 1.46 µM | 95.5% | 5.69 µM | 82.8% |  |  |  |  |  |  |  |  |  |

From publication PMC7155171, “Probing the Open Global Health Chemical Diversity Library for Multistage-Active Starting Points for Next-Generation Antimalarials” (ACS Infectious Diseases, 2020)
